Assays:
human cloned H1 receptor = target: T1, human cloned H1 receptor (Homo sapiens, UniProt P35367); test: CHO-K1 H1R binding assay (3H-pyrilamine displacement); settings: CHO-K1 membranes, 3H-pyrilamine 2 nM, 3 hours at 37° C.; read-out: CHOH1 KI
T1 construct: expressed in transfected cells; host or cells: CHO-K1
Procedure: CHO—K1 cells expressing the human cloned H1 receptor are grown to confluence in tissue culture dishes. Cells are harvested using D-PBS buffer (JRH Biosciences), kept at 4° C., centrifuging to pellet cells (4° C., 500 g, 10 min). The final cell pellet is homogenized and resuspended using Tris/sucrose buffer (20 mM Tris, 250 mM sucrose, pH 74 at 4° C. Aliquots of the membrane preparation are stored at −70° C.
On the day of assay, the membrane preparation is thawed and centrifuged (TLA100.3 rotor, 4° C., 15 min, 23,000 rpm). The pellet is resuspended in Tris/sucrose buffer initially and then diluted further as necessary using assay buffer A (50 mM Na/KPO4, 2 mM MgCl2, 0.5% (w/v) BSA, pH 7.5).
For the binding assay, the membrane preparation, test compound and ^3H-pyrilamine (2 nM final) in buffer A with 1% (v/v) DMSO final are incubated in a 96-well polypropylene plate for 3 hours at 37° C. Non-specific binding is determined in the presence of 10 μM pyrilamine. A 96-well harvester (Packard) is used to harvest the 96-well plate onto a GF/B filter plate pre-treated with 0.1% (v/v) PEI. The plate is counted in a Packard Topcounter after adding Microscint 20 (Packard) scintillation fluid. The Ki for each compound at the histamine H1 receptor is then calculated from these counts.

[1] = target: T2, human 5-lipoxygenase enzyme (Homo sapiens, UniProt P09917); test: Inhibition of LTB4 production in human whole blood stimulated with calcium ionophore A23187; format: cell-based; settings: A23187 50 μM, LTB4 by EIA, read-out: HWB IC50
T2 construct: Blood is drawn from normal human volunteers into tubes containing heparin; endogenous in cells; host or cells: human whole blood, heparinized, stimulated with A23187
T2 sequence (P09917 1-674): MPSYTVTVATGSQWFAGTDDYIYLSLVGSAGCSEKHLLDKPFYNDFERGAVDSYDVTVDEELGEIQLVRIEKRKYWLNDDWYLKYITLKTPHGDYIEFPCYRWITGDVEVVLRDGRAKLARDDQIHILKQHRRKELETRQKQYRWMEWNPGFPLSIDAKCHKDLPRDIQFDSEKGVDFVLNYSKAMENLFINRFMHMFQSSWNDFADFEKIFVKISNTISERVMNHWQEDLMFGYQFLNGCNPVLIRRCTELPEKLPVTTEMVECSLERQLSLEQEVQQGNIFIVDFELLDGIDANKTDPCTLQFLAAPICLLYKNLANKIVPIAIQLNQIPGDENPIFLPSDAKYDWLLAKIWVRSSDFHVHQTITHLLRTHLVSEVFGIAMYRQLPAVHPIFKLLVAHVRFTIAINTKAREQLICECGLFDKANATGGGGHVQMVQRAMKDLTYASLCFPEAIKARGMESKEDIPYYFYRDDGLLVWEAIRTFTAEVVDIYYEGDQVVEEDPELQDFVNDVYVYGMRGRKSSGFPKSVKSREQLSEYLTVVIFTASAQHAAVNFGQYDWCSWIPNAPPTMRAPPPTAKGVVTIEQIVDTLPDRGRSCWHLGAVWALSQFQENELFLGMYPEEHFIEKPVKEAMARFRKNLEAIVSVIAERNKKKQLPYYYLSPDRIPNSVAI
Procedure: This assay examines the ability of a compound to inhibit leukotriene B4 Production from human blood stimulated with calcium ionophore. As this production of leukotriene B4 is mediated via the activation of the 5-lipoxygenase enzyme, this assay is predictive of a compound's ability to inhibit the human 5-lipoxygenase enzyme.
The procedure for the assay is as follows. Blood is drawn from normal human volunteers into tubes containing heparin. 1 ml of the heparinized blood is pipetted into a 1.5 ml polypropylene tube. To this sample is added either different concentrations of the test compound (5 μl) dissolved in DMSO or 5 μl of DMSO as a vehicle control. These samples are incubated in a water bath, at […] for 15 min. […] From this a percent inhibition of LTB4 production by each concentration of test compound is calculated and the IC50 for inhibition of LTB4 production for each test compound is determined.

T1 sequence (P35367 whole entry): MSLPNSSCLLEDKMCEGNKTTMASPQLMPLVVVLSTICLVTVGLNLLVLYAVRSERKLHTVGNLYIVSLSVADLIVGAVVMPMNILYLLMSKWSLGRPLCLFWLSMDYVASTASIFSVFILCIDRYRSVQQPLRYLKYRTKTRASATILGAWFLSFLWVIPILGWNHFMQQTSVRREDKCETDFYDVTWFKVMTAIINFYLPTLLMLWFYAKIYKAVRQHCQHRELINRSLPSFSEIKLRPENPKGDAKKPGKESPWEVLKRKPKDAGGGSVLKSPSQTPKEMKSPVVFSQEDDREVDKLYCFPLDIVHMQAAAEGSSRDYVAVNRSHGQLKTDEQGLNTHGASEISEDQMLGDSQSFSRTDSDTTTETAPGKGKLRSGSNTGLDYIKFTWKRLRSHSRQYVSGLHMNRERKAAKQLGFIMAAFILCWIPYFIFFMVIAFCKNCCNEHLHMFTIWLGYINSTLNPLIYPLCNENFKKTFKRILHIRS

Compound: C[C@@H](c1ccc(OCCN2CCN(C(c3ccc(F)cc3)c3ccc(F)cc3)CC2)cc1)N(O)C(N)=O (racemic) [Compound 11, amino-N-{[4-(2-{4-[bis(4-fluorophenyl)methyl]piperazinyl}ethoxy)phenyl]ethyl}-N-hydroxyamide]
- Ki (human cloned H1 receptor): 130 nM
- IC50 [1]: 3630 nM
